Results: US20050267067A1, “Radical reaction inhibitors, method for inhibition of radical reactions, and use thereof” (priority 2002, published 2005)

Legend:
sucrase = test: Sucrase activity of rat small intestinal mucosal enzyme solution after AAPH oxidation; type: biochemical
Description: One milliliter of the above rat small intestinal mucosal enzyme solution, one milliliter of a 100 mM AAPH solution, one milliliter of a 50 mM phosphate buffer (pH 7.2), and one milliliter of a 400 mM of the crystalline cyclotetrasaccharide pentahydrate prepared in Experiment 1-1 were mixed, incubated at 37° C. for two hours, and measured for the activities of sucrase and maltase.
After incubated at 37° C. for 30 min, the mixture was quantified for free glucose by the GOD method.

maltase = test: Maltase activity of rat small intestinal mucosal enzyme solution after AAPH oxidation; type: biochemical
Description: One milliliter of the above rat small intestinal mucosal enzyme solution, one milliliter of a 100 mM AAPH solution, one milliliter of a 50 mM phosphate buffer (pH 7.2), and one milliliter of a 400 mM of the crystalline cyclotetrasaccharide pentahydrate prepared in Experiment 1-1 were mixed, incubated at 37° C. for two hours, and measured for the activities of sucrase and maltase. […] To a half milliliter of a maltose solution, which had been prepared by dissolving maltose in 50 mM sodium maleate (pH 6.6) to give a concentration of one percent (%), 0.05 ml of a AAPH-rat small intestinal mucosal enzyme solution. After incubated at 37° C. for 30 min, the mixture was quantified for free glucose by the GOD method. One unit (U) activity of maltase was defined as an enzyme amount that releases two micromoles of glucose per minutes from maltose at 37° C.

calf serum albumin (BSA) = test: Modification of BSA by lipid peroxides (protein carbonyl, OLAARPs); type: biochemical; conditions: for OLAARPs Formation: (%) / Protein carbonyl Formation: (%): BSA, versus no saccharide; for Formed OLAARPs / Formed Protein carbonyl: 37° C., 24 hours
Description: (§1) In this experiment, saccharide solutions were prepared to give an equal total saccharide molar concentration in each solution.
(§2) As a negative control, PBS was used.
(§3) To five milliliters of either of the above saccharide solutions for testing or the negative control was added 10 mg of calf serum albumin (BSA) or L-lysine, followed by dissolving. To each of the resulting solutions was added 25 μg of 2,4-decadienal or malondialdehyde (MDA) as a lipid peroxide, followed by reaction at 37° C. for 24 hours. After completion of the reaction, protein carbonyl and reaction products of oxidized lipids/aminoacids (OLAARPs) formed as aldehyde adducts were quantified on the calorimetric method. […] The formation levels of protein carbonyl and OLAARPs were determined based on the absorbances obtained in this experiment, in terms of the molar absorbance coefficient for each molecule as disclosed in Biochim. Biophys.
(§4) To each of the resulting mixtures was added 600 μl of 30% trichloroacetic acid, and the mixture was allowed to stand at 0° C. for one hour and centrifuged at 10,000 rpm for 15 min to obtain a precipitate, followed by washing the resulting precipitate four times with two milliliters of ethanol/ethylacetate (1:1), respectively, adding 1.5 ml of 6M-guanidine hydrochloride/20 mM-NaPi/TFA (pH 2.3) to the resultant, allowing the mixture to stand at 37° C. for 30 min, and measuring the absorbance of the resulting mixture at a wavelength of 580 nm, ε=35,000 M^−1 cm^−1.

[1] = Modification of L-lysine by lipid peroxides (protein carbonyl, OLAARPs); conditions: for OLAARPs Formation: (%) / Protein carbonyl Formation: (%): L-lysine, versus no saccharide; for Formed OLAARPs / Formed Protein carbonyl: 37° C., 24 hours
Description: as §1, §2
as §3, with “Biophys. Acta, No. 1,258, pp. 319-327 (1985).” for “Biophys.”
as §4, with “cm^−1. […] To any one of the resulting mixtures was added two milliliters of a 12.5 mM DNPH/2.5 N-hydrochloride solution, and the resulting mixture was allowed to stand at 45° C. for 30 min, followed by measuring the absorbance of the resulting mixture at a wavelength of 580 nm, E=35,000 M^−1 cm^−1.” for “cm^−1.”

[2] = enzyme solution incubated with AAPH at 37° C. for two hours, with or without cyclotetrasaccharide
[3] = versus system with no AAPH, 37° C., two hours
[4] = added lipid peroxide 2,4-decadienal
[5] = added lipid peroxide malondialdehyde (MDA)

Sucrase activity (sucrase; [2]) [u/mg-protein]	Sucrase Relative residual activity (%) (sucrase; [3])	Maltase activity (maltase; [2]) [u/mg-protein]	Maltase Relative residual activity (%) (maltase; [3])	Structure (SMILES)	OLAARPs Formation: (%) (calf serum albumin (BSA); 2,4-decadienal)	Protein carbonyl Formation: (%) (calf serum albumin (BSA); 2,4-decadienal)	OLAARPs Formation: (%) (calf serum albumin (BSA); MDA)	Protein carbonyl Formation: (%) (calf serum albumin (BSA); MDA)	Formed OLAARPs (calf serum albumin (BSA); [4]) [μmol/g-BSA]	Formed Protein carbonyl (calf serum albumin (BSA); [4]) [μmol/g-BSA]	Formed OLAARPs (calf serum albumin (BSA); [5]) [μmol/g-BSA]	Formed Protein carbonyl (calf serum albumin (BSA); [5]) [μmol/g-BSA]	OLAARPs Formation: (%) ([1]; 2,4-decadienal)	Protein carbonyl Formation: (%) ([1]; 2,4-decadienal)	OLAARPs Formation: (%) ([1]; MDA)	Protein carbonyl Formation: (%) ([1]; MDA)	Formed OLAARPs [1, 4] [μmol/g-L-lysine]	Formed Protein carbonyl [1, 4] [μmol/g-L-lysine]	Formed OLAARPs [1, 5] [μmol/g-L-lysine]	Formed Protein carbonyl [1, 5] [μmol/g-L-lysine]
0.0042	(29) %	0.0555	(71) %	CC(C)(N=NC(C)(C)C(=N)N)C(=N)N.Cl.Cl [AAPH, 2,2′-azo-bis(2-amidinopropane)dihydrochloride, reference compound]	–	–	–	–	–	–	–	–	–	–	–	–	–	–	–	–
–	–	–	–	OC[C@@H](O)[C@@H](O[C@H]1O[C@H](CO)[C@@H](O)[C@H](O)[C@H]1O)[C@H](O)[C@@H](O)CO [Maltitol, maltitol]	(67) %	(53) %	(48) %	(53) %	2.83	7.51	2.78	1.29	(73) %	(51) %	(84) %	(55) %	5.90	6.81	7.23	3.29
–	–	–	–	OC[C@H]1O[C@@](CO)(O[C@H]2O[C@H](CO)[C@@H](O)[C@H](O)[C@H]2O)[C@@H](O)[C@@H]1O [Sucrose, sucrose]	–	–	–	–	–	–	–	–	(93) %	(81) %	(94) %	(96) %	7.54	10.92	8.13	5.75
